Test results published in patent US11673877B2 (priority 2017, dated 2023).
In brackets after ≈: the same amount, converted by molar mass. Where two headings read alike, the source gives them in different places.

Experiments:
[1] = solid form, no method given
[2] = for water activity at which the form is the preferred form: slurry in water/DMSO mixtures, 2 days
Protocol: Powder samples were prepared in a low background Si holder using light manual pressure to keep the sample surfaces flat and level with the reference surface of the sample holder. Each sample was analyzed from 2 to 40° 2θ using a continuous scan of 6° 2θ per minute with an effective step size of 0.02° 2θ. Unless otherwise noted, XPRD studies were performed at room temperature and room humidity.
Slurry experiments designed to provide a range of water activities were carried out in solvent mixtures containing water and dimethylsulfoxide (Table 1). […] The samples were analyzed while wet to avoid changes, such as the hydrate converting to the anhydrate, from drying.

[3] = for hygroscopicity from DVS curve: 5 to 95% RH; for solid form by XRPD after the DVS experiment: after adsorption/desorption cycle 5-95-5% RH
Protocol: DVS analyses were carried out TA Instruments Q5000 Dynamic Vapor Sorption analyzer. The instrument was calibrated with standard weights and a sodium bromide standard for humidity. Samples were analyzed at 25° C. with a maximum equilibration time of 60 minutes in 10% relative humidity (RH) steps from 5 to 95% RH (adsorption cycle) and from 95 to 5% RH (desorption cycle).
After the experiment the samples were analyzed by XRPD.

physchem = details: aqueous solution, aqueous buffer
[4] = system: cancer cells with mutant BRCA-1 and BRCA-2; details: read-out: inhibition of proliferation CC50; cited from earlier work
PARP = details: read-out: inhibition of PARP activity EC50; whole cell assay; cited from earlier work

## NC(=O)c1cccc2cn(-c3ccc([C@@H]4CCCNC4)cc3)nc12 [2-{4-[(3S)-piperidin-3-yl]phenyl}-2H-indazole-7-carboxamide, reference compound]
[1]
  hygroscopicity: highly hygroscopic

## NC(=O)c1cccc2cn(-c3ccc([C@@H]4CCCNC4)cc3)nc12 [Form III, 2-{4-[(3S)-piperidin-3-yl]phenyl}-2H-indazole-7-carboxamide]
[2]
  water activity at which the form is the preferred form: ≤ 0.11
[3]; 25° C.
  hygroscopicity from DVS curve: very hygroscopic
[3]
  solid form by XRPD after the DVS experiment: converted to the monohydrate
[3]; up to 95% RH, 25° C.
  DVS weight gain: approximately 15.8%

## Cc1ccc(S(=O)(=O)O)cc1.NC(=O)c1cccc2cn(-c3ccc([C@@H]4CCCNC4)cc3)nc12 [Niraparib tosylate monohydrate, 2-{4-[(3S)-piperidin-3-yl]phenyl}-2H-indazole 7-carboxamide 4-methylbenzenesulfonate hydrate (1:1.1)]
[1]
  hygroscopicity: non-hygroscopic
[2]
  water activity at which the form is the preferred form: ≥ 0.22
[3]; 25° C.
  hygroscopicity from DVS curve: not hygroscopic
[3]
  solid form by XRPD after the DVS experiment: remained unchanged

## NC(=O)c1cccc2cn(-c3ccc([C@@H]4CCCNC4)cc3)nc12 [Niraparib, 2-{4-[(3S)-piperidin-3-yl]phenyl}-2H-indazole-7-carboxamide]
physchem
  solubility: 700 to 1100 µg/mL (≈ 2180 to 3430 µM)
[4]
  CC50: 10 to 100 nM
PARP
  EC50: […]

## Cc1ccc(S(=O)(=O)O)cc1.NC(=O)c1cccc2cn(-c3ccc([C@@H]4CCCNC4)cc3)nc12 [niraparib tosylate, 2-{4-[(3S)-piperidin-3-yl]phenyl}-2H-indazole-7-carboxamide tosylate]
[2]; 0 % water in DMSO, water activity 0, 2 days
  XRPD Result: anhydrate
[2]; 17.2 % water in DMSO, water activity 0.22, 2 days
  XRPD Result: hydrate
[2]; 27.6 % water in DMSO, water activity 0.38, 2 days
  XRPD Result: hydrate
[2]; 43.3 % water in DMSO, water activity 0.60, 2 days
  XRPD Result: hydrate
[2]; 82.8 % water in DMSO, water activity 0.84, 2 days
  XRPD Result: hydrate
[2]; 100.0 % water, water activity 1.00, 2 days
  XRPD Result: hydrate
